Biological target: T1, Human cRaf1 (Homo sapiens, UniProt P04049)
T1 construct: poly-histidine (C); made in house
Test: Raf kinase assay (cRaf1 assay / Raf/MEK cascade assay)
Format: biochemical
Details: Table 3; read-out: Raf Kinase activity
Protocol: The potency of cRaf1 dependent kinase activity was measured using one of two assay formats. The first measured cRaf1 catalyzed phosphorylation of MEK1, the natural substrate for cRaf1. This assay is referred to as the cRaf1 assay. The second measured the ability of cRaf1 to phosphorylate and activate MEK1. This assay is referred to as the Raf/MEK cascade assay.
Human cRaf1 tagged with poly histidine at the carboxyterminus was expressed in a baculovirus expression system and purfied by Ni chelate affinity chromatography. Human MEK1 was expressed in E. coli as a fusion protein with Glutathione-S-transferase, and purified by glutathione sepharose affinity chromatography. […] Reactions contained cRaf1 (20 nM), MEK1 (100-500 nM), [γ-^32 P]ATP ([…]), Mg^2+ (10 mM), MOPS (50 mM, pH 7.5). Reactions were incubated at room temperature for periods of time ranging from 20-120 minutes. Inhibitors were diluted in 100% DMSO prior to addition to the assay. Reactions were terminated with an equal volume of 0.5% phosphoric acid. MEK1 phosphorylation was detected by scintillation counting following collection of protein onto phosphocellulose filters.
Human cRaf1 and MEK1 were purified as described above. A peptide substrate phosphorylated by MEK1 was used as the final phosphoryl group acceptor. […] Assay conditions were the same as those described above except for the following modifications. Reactions contained cRaf1 (1-5 nM), MEK1 (60 nM), and peptide ([…]).

| Compound | IC50 |
| --- | --- |
| O=C1Nc2ccc(OC(F)(F)F)cc2C1=Cc1cc(Cl)c(O)c(Cl)c1 [Example 60, 3-(3,5-Dichloro-4-hydroxy-benzylidene)-5-trifluoromethoxy-1,3-dihydro-indol-2-one] | < 1 µM |
| O=C1Nc2ccc(C(=O)c3ccncc3)cc2C1=Cc1cc(Br)c(O)c(Br)c1 [Example 13, 3-(3,5-Dibromo-4-hydroxy-benzylidene)-5-(pyridine-4-carbonyl)-1,3-dihydro-indol-2-one] | < 1 µM |
| O=C1Nc2ccc(-c3csc(Nc4ccccc4)n3)cc2C1=Cc1cc(Br)c(O)c(Br)c1 [Example 126, 3-(3,5-Dibromo-4-hydroxy-benzylidene)-5-(2-phenylamino-thiazol-4-yl)-1,3-dihydro-indol-2-one] | < 1 µM |
| CN(C)c1ccc2c(c1)C(=Cc1cc(Br)c(O)c(Br)c1)C(=O)N2 [Example 163, 3-[(3,5-Dibromo-4-hydroxyphenyl)methylidene]-5-(dimethylamino)-1,3-dihydro-2H-indol-2-one] | < 1 µM |
| O=C1Nc2ccc(C(=O)CN3CCSCC3)cc2C1=Cc1cc(Br)c(O)c(Br)c1 [Example 72] | < 1 µM |
| CN(C)CCNC(=O)c1ccc2c(c1)C(=Cc1cc(Br)c(O)c(Br)c1)C(=O)N2 [Example 168, 3-[(3,5-Dibromo-4-hydroxyphenyl)methylidene]-N-(2-(dimethylamino)ethyl]-2-oxo-5-indolinecarboxamide] | < 1 µM |
| CC(C)Oc1ccc2c(c1)NC(=O)C2=Cc1cc(Br)c(O)c(Br)c1 [Example 113, 3-(3,5-Dibromo-4-hydroxy-benzylidene)-6-isopropoxy-1,3-dihydro-indol-2-one] | 1 to 10 µM |
| CCN(CC)C(=O)Oc1c(Br)cc(C=C2C(=O)Nc3ccc(C(=O)c4ccccc4)cc32)cc1Br [Example 167, 4-[(5-Benzoyl-2-oxo-1,2-dihydro-3H-indol-3-yildene)methyl]-2,6-dibromophenyl N,N-diethylcarbamate] | 10 to 100 µM |
| CCOc1cc(C=C2C(=O)Nc3ccc(I)cc32)cc(Br)c1O [Example 42, 3-(3-Bromo-5-ethoxy-4-hydroxy-benzylidene)-5-iodo-1,3-dihydro-indol-2-one] | < 1 µM |
| O=C1Nc2ccc([N+](=O)[O-])cc2C1=Cc1cc(Br)c(O)c(Br)c1 [Example 63, 3-(3,5-Dibromo-4-hydroxy-benzylidene)-5-nitro-1,3-dihydro-indol-2-one] | < 1 µM |
| O=C1Nc2ccccc2C1=Cc1cc([N+](=O)[O-])c(O)c([N+](=O)[O-])c1 [Example 47, 3-(3,5-dinitro-4-Hydroxy-benzylidene)-1,3-dihydro-indol-2-one] | 1 to 10 µM |
| COc1cc(C=C2C(=O)Nc3ccc(Cl)cc32)cc([N+](=O)[O-])c1O [Example 53, 5-Chloro-3-(4-hydroxy-3-methoxy-5-nitro-benzylidene)-1,3-dihydro-indol-2-one] | < 1 µM |
| O=C1Nc2ccc(-c3csc(-c4ccccc4)n3)cc2C1=Cc1cc(Cl)c(O)c(Cl)c1 [Example 124, 3-(3,5-Dichloro-4-hydroxy-benzylidene)-5-(2-phenyl-thiazol-4-yl)-1,3-dihydro-indol-2-one] | < 1 µM |
| O=C(OCc1ccccc1)Oc1c(Br)cc(C=C2C(=O)Nc3ccc(Cl)cc32)cc1Br [Example 146, Benzyl 2,6-dibromo-4-[(5-chloro-2-oxo-1,2-dihydro-3H-indol-3-ylidene)methyl]phenyl carbonate] | 10 to 100 µM |
| O=C1Nc2ccc(C(=O)O)cc2C1=Cc1cc(Br)c(O)c(Br)c1 [Example 156, 3-(3,5-Dibromo-4-hydroxy-benzylidene)-2-oxo-2,3-dihydro-1H-indol-5-carboxylic acid] | < 1 µM |
| O=C1Nc2ccc(-c3cnco3)cc2C1=Cc1cc(Cl)c(O)c(Cl)c1 [Example 17] | < 1 µM |
| O=C1Nc2ccccc2C1=Cc1cc(Cl)c(O)c(Cl)c1 [Example 48, 3-(3,5-dichloro-4-Hydroxy-benzylidene)-1,3-dihydro-indol-2-one] | 1 to 10 µM |

Other lines, results leading:

| IC50 | Compound |
| --- | --- |
| < 1 µM | N#Cc1ccccc1-c1ccc2c(c1)C(=Cc1cc(Br)c(O)c(Br)c1)C(=O)N2 [Example 178, 2-3-[(3,5 Dibromo-4-hydroxyphenyl)methylidene]-2-oxo-2,3-dihydro-1H-indol-5-ylbenzonitrile] |
| < 1 µM | O=C1Nc2ccc(-c3ccc(Cl)cc3Cl)cc2C1=Cc1cc(Br)c(O)c(Br)c1 [Example 171, 3-[(3,5-Dibromo-4-hydroxyphenyl)methylidene]-5-(2,4-dichlorophenyl)-1,3-dihydro-2H-indol-2-one] |
| 10 to 100 µM | O=C(OCc1cccnc1)Oc1c(Br)cc(C=C2C(=O)Nc3ccc(Cl)cc32)cc1Br [Example 149, 2,6-Dibromo-4-[(5-chloro-2-oxo-1,2-dihydro-3H-indol-3-ylidene)methyl]phenyl 3-pyridinylmethyl carbonate] |
| < 1 µM | NS(=O)(=O)c1ccc2c(c1)C(=Cc1cc(Cl)c(O)c(Cl)c1)C(=O)N2 [Example 99, 3-(3,5-Dichloro-4-hydroxy-benzylidene)-2-oxo-2,3-dihydro-1H-indole-5-sulfonic acid amide] |
| < 1 µM | O=C1Nc2ccc(C(=O)c3ccccc3)cc2C1=Cc1cc(Br)c(O)c(Br)c1 [Example 6, 5-Benzoyl-3-(3,5-dibromo-4-hydroxy-benzylidene)-1,3 dihydro-indol-2-one] |
| < 1 µM | COC(=O)c1ccc2c(c1)C(=Cc1cc(Cl)c(O)c(Cl)c1)C(=O)N2 [Example 27, 3-(3,5-Dichloro-4-hydroxy-benzylidene)-2-oxo-2,3-dihydro-1H-indole-5-carboxylic acid methyl ester] |
| 10 to 100 µM | CCOC(=O)Oc1c(Br)cc(C=C2C(=O)Nc3ccc(Cl)cc32)cc1Br [Example 147, 2,6-Dibromo-4-[(5-chloro-2-oxo-1,2-dihydro-3H-indol-3-ylidene)methyl]phenyl ethyl carbonate] |
| < 1 µM | O=C1Nc2ccc(Br)cc2C1=Cc1cc(Br)c(O)c(Br)c1 [Example 81, 5-Bromo-3-(3,5-dibromo-4-hydroxy-benzylidene)-1,3-dihydro-indol-2-one] |
| < 1 µM | CN(C)c1nc(-c2ccc3c(c2)C(=Cc2cc(Br)c(O)c(Br)c2)C(=O)N3)cs1 [Example 173, 3-[(3,5-Dibromo-4-hydroxyphenyl)methylidene]-5-[2-(dimethylamino)-1,3-thiazol-4-yl]-1,3-dihydro-2H-indol-2-one] |
| < 1 µM | O=C1Nc2ccc(C(=O)c3ccno3)cc2C1=Cc1cc(Br)c(O)c(Br)c1 [Example 37, 3-(3,5-Dibromo-4-hydroxy-benzylidene)-5-(isoxazole-5-carbonyl)-1,3-dihydro-indol-2-one] |
| < 1 µM | CC(=O)Nc1ccc2c(c1)C(=Cc1cc(Br)c(O)c(Br)c1)C(=O)N2 [Example 159] |
| < 1 µM | COc1cc(C=C2C(=O)Nc3ccccc32)cc(Br)c1O [Example 46, 3-(3-Bromo-4-hydroxy-5-methoxy-benzylidene)-1,3-dihydro-indol-2-one] |
| < 1 µM | CS(=O)(=O)c1ccc2c(c1)C(=Cc1cc(Br)c(O)c(Br)c1)C(=O)N2 [Example 174, 3-[(3,5-Dibromo-4-hydroxyphenyl)methylidene]-5-(methylsulfonyl)-1,3-dihydro-2H-indol-2-one] |
| < 1 µM | COc1cccc(C(=O)c2ccc3c(c2)C(=Cc2cc(Br)c(O)c(Br)c2)C(=O)N3)c1 [Example 91, 3-(3,5-Dibromo-4-hydroxy-benzylidene)-5-(3-methoxy-benzoyl)-1,3-dihydro-indol-2-one] |
| < 1 µM | CN(CC(N)=O)CC(=O)c1ccc2c(c1)C(=Cc1cc(Br)c(O)c(Br)c1)C(=O)N2 [Example 69, 2-(N-{3-[3-(3,5 Dibromo-4-hydroxy-benzylidene)-2-oxo-2,3-dihydro-1H-indol-5-yl]-2-oxo-ethyl}-N-methyl-amino)-acetamide] |
| < 1 µM | O=C1Nc2ccc(-c3ccsc3)cc2C1=Cc1cc(Br)c(O)c(Br)c1 [Example 139, 3-(3,5-Dibromo-4-hydroxy-benzylidene)-5-thiophen-3-yl-1,3-dihydro-indol-2-one] |
| < 1 µM | O=C1Nc2c(F)cccc2C1=Cc1cc(Br)c(O)c(Br)c1 [Example 109, 3-(3,5-Dibromo-4-hydroxy-benzylidene)-7-fluoro-1,3-dihydro-indol-2-one] |
| < 1 µM | O=C1Nc2ccc([N+](=O)[O-])cc2C1=Cc1cc(O)c(O)c(Cl)c1 [Example 105, 3-(3-Chloro-4,5-dihydroxy-benzylidene)-5-nitro-1,3-dihydro-indol-2-one] |
| < 1 µM | CC(=O)N1CCc2cc3c(cc21)C(=Cc1cc(Br)c(O)c(Br)c1)C(=O)N3 [Example 118, 5-Acetyl-3-(3,5-dibromo-4-hydroxy-benzylidene)-3,5,6,7-tetrahydro-1H-pyrrolo[2,3-f]indol-2-one] |
| < 1 µM | 3-(3,5-Dibromo-4-hydroxy-benzylidene)-5-(3-methylimidazol-1-yl-acetyl)-1,3-dihydro-indol-2-one [Example 71] |
| < 1 µM | CCOc1cc(C=C2C(=O)Nc3ccc(Br)cc32)cc(Br)c1O [Example 56, 5-Bromo-3-(3-bromo-5-ethoxy-4-hydroxy-benzylidene)-1,3-dihydro-indol-2-one] |

Source: US6268391A, “Benzylidene-1,3-dihydro-indol-2-one derivatives a receptor tyrosine kinase inhibitors, particularly of Raf kinases” (Glaxo Wellcome Inc., priority 1997, dated 2001)
